Reference: ChEMBL document CHEMBL3525934 (Drug Metab Dispos, 2013)

How the values were obtained:
Assay type in all cases: ADME
Details in all cases: 0.5 h
Cytochrome P450 2A6 = biological target: T1, Cytochrome P450 2A6 (Homo sapiens, UniProt P11509); test: Drug metabolism in supersomes expressing human recombinant CYP2A6 assessed as enzyme-mediated cyanide adduct formation at 100 uM after 30 mins measured per nmol of P450 by HPLC analysis in presence of KCN
T1 sequence (P11509 whole entry): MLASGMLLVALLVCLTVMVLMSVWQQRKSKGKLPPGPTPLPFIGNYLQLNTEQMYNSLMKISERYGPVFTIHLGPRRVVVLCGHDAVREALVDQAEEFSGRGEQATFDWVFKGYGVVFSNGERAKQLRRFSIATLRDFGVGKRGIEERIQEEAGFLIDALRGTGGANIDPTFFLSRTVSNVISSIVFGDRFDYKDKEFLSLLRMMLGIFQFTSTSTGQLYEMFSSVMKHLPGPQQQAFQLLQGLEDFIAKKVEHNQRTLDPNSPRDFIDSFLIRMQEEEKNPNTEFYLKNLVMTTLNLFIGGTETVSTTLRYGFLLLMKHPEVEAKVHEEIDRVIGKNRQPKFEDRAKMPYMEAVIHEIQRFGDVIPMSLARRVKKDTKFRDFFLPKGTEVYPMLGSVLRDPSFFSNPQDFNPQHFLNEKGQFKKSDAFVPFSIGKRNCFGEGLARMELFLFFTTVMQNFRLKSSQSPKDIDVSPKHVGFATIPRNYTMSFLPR

Cytochrome P450 1B1 = biological target: T2, Cytochrome P450 1B1 (Homo sapiens, UniProt Q16678); test: Drug metabolism in supersomes expressing human recombinant CYP1B1 assessed as enzyme-mediated clozapine-N-oxide metabolite formation at 10 uM after 30 mins measured per nmol of P450 by HPLC analysis
T2 sequence (Q16678 whole entry): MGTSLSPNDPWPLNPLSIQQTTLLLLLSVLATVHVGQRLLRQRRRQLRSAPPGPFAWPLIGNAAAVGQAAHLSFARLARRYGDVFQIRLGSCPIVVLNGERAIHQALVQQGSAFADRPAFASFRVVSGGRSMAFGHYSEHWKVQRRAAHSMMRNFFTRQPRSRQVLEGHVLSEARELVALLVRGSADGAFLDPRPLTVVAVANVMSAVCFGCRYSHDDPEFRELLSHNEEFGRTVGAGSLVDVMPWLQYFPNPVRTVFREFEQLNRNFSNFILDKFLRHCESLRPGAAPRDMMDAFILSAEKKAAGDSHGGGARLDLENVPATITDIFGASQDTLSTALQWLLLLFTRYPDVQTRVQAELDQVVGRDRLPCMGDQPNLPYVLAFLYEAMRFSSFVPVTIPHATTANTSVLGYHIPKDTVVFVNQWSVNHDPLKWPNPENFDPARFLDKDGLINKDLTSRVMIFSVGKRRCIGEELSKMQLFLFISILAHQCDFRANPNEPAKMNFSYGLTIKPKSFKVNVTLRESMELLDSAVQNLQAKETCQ

Cytochrome P450 2C18 = biological target: T3, Cytochrome P450 2C18 (Homo sapiens, UniProt P33260); test: Drug metabolism in supersomes expressing human recombinant CYP2C18 assessed as enzyme-mediated clozapine-N-oxide metabolite formation at 100 uM after 30 mins measured per nmol of P450 by HPLC analysis
T3 sequence (P33260 whole entry): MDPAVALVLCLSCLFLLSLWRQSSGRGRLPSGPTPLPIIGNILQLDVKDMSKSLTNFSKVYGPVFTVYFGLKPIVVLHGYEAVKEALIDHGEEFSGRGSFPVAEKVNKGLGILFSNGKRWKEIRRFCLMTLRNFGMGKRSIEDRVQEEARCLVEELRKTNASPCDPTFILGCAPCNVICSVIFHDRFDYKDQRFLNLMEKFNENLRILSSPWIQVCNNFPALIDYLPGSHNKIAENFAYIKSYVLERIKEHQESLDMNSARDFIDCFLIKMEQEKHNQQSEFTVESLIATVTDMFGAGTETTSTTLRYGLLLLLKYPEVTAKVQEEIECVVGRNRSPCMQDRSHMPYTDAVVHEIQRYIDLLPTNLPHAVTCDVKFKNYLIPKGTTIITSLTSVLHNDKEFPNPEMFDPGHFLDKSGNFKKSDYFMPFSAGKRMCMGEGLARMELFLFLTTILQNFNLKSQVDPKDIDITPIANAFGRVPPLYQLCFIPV

Cytochrome P450 1A2 [1] = biological target: T4, Cytochrome P450 1A2 (Homo sapiens, UniProt P05177); test: Drug metabolism in supersomes expressing human recombinant CYP1A2 assessed as enzyme-mediated total GSH conjugate formation at 10 uM after 30 mins measured per nmol of P450 by HPLC analysis in presence of GSH and hGST P1-1
T4 sequence (P05177 whole entry): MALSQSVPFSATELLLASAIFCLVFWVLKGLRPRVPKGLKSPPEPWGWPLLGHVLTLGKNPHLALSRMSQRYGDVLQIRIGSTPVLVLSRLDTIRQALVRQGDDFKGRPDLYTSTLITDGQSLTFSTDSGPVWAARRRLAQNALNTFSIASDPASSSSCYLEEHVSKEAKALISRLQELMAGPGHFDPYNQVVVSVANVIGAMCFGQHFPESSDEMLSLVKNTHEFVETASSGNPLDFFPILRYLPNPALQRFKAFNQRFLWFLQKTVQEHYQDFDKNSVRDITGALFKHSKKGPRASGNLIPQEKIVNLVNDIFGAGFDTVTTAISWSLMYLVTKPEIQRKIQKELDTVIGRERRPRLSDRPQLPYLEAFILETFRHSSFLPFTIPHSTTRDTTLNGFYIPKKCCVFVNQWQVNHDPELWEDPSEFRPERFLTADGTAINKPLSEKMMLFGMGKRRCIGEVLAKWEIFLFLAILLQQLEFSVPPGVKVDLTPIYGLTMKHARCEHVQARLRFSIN

Cytochrome P450 1A2 [2] = biological target: T4, Cytochrome P450 1A2; test: Drug metabolism in supersomes expressing human recombinant CYP1A2 assessed as enzyme-mediated N-desmethylclozapine metabolite formation at 100 uM after 30 mins measured per nmol of P450 by HPLC analysis
Cytochrome P450 2C8 = biological target: T5, Cytochrome P450 2C8 (Homo sapiens, UniProt P10632); test: Drug metabolism in supersomes expressing human recombinant CYP2C8 assessed as enzyme-mediated N-desmethylclozapine metabolite formation at 100 uM after 30 mins measured per nmol of P450 by HPLC analysis
T5 sequence (P10632 whole entry): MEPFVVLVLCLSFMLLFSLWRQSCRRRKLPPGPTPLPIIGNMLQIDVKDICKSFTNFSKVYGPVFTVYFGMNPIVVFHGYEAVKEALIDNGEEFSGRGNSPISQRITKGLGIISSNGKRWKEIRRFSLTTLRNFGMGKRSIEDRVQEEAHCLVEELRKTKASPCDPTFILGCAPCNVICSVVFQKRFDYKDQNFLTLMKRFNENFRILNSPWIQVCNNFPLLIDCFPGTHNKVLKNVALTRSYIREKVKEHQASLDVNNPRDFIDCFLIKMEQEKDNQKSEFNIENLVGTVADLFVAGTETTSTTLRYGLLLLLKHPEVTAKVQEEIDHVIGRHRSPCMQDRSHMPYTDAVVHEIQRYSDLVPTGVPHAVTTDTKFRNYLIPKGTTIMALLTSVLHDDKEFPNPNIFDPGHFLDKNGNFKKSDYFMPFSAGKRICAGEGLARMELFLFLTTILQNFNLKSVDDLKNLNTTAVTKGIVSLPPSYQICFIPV

**Q.** How did the Drug metabolism (Cytochrome P450 2A6) turn out when CN1CCN(C2=Nc3cc(Cl)ccc3Nc3ccccc32)CC1 [CLOZAPINE] was run?
**A.** 0.17 nmol/min

**Q.** And the Drug metabolism (Cytochrome P450 1B1)?
**A.** 0.84 nmol/min

**Q.** What about the Drug metabolism (Cytochrome P450 2C18) of the same compound?
**A.** 0.065 nmol/min

**Q.** What about the Drug metabolism (Cytochrome P450 1A2 [1]) of the same compound?
**A.** 0.06 nmol/min

**Q.** What about the Drug metabolism (Cytochrome P450 1A2 [2]) of the same compound?
**A.** 8.71 nmol/min

**Q.** What about the Drug metabolism (Cytochrome P450 2C8) of the same compound?
**A.** 0.89 nmol/min
